{"source": "patent US6080780A", "about": "“Use of nitroflavonoids for the treatment of anxiety” (University of Strathclyde, priority 1995, dated 2000)", "key": {"[1]": {"tested_on": "benzodiazepine (BDZ-R) receptor", "test": "3H-Flunitrazepam binding to extensively washed bovine cerebral cortical membranes", "protocol": "Non-specific nitration of the flavone nucleus yielded the two nitrated flavone (II) and (IIa). […] Briefly, ^3 H-FNZ binding was carried out as described by Levy de Stein, M., Medina, J. H., De Robertis E., Mol. Brain Res. 1985, 5, 9-15. In brief, for each assay, triplicate samples of the membranes, containing 0.2 to 0.4 mg protein were suspended in a final volume of 1 mL of 0.25 mM Tris-HCl buffer, pH 7.3. The incubation was carried out at 4° C. for 60 minutes with 0.6 nM ^3 -FNZ. To study the binding saturation, a range of 0.3 to 10 nM ^3 H-FNZ was used. Non-specific binding was determined in parallel incubations in the presence of 3 μM FNZ, and represented 5-15% of total. The assays were terminated by filtration under vacuum though Whatman GF/A glass-fiber filters, and three washes with 3 mL each of incubation medium. Filters were dried and counted after the addition of 5 mL of 2,5-diphenyloxazole/xylene as scintillation fluid. Bovine cerebral cortical membranes were treated substantially following the method of Medina, J. H., De Robertis, E. J., J. Neurochem. 1985, 44, 1340-1345."}, "β adrenergic receptors": {"tested_on": "β adrenergic receptors", "test": "[3H]-dihidroalprenolol binding", "conditions": "20 μM; data not shown", "protocol": "Additional binding studies were performed as described elsewhere: [^3 ]-prazosin binding for α1 adrenergic receptors (Medina et al., 1984), [^3 H]-dihidroalprenolol binding for β adrenergic receptors (Medina et al. 1984), [^3 H]-quinuclinidyl benzylate binding for muscarinic cholinergic receptors (Jerusalinksy et al., 1983), [^3 H]-muscimol binding for GABAλ receptors (Medina et al., 1983) and [^3 H]-8-Hydroxydipropylaminotetralin ([^3 H]--OH--DPAT) binding for serotonin (5-HTlλ) receptors (Nenonene et al., 1984)."}, "[2]": {"target": "central benzodiazepine receptors", "test": "Autoradiographic [3H]-FNZ displacement on rat brain sections", "format": "binding, rat (Wistar)", "conditions": "for Ki: n=3, read-out: Ki, [3H]-FNZ binding, autoradiography", "protocol": "Wistar rats were decapitated and brains rapidly removed. Sagittal sections (15 μm in thickness) were prepared at -20° C. using a microtome-cryostat. The tissue slices were kept frozen at -70° C. until used. For DNF displacement curves to [^3 H]--FNZ binding (0.65 nM), tissue sections were incubated for 60 min at 4° C. in 25 mM Tris HCl buffer, pH 7.4, in presence of different concentrations of DNF (1-600 nM). For non-specific binding we used 10 μM FNZ. The incubation was terminated by rinsing the sections for two min in cold buffer. Sections were briefly dipped in cold distilled water and dried rapidly under a stream of cold air (Niddam et al., 1987).\nAutoradiograms were generated by apposing the slide-mounted tissue section to tritium-sensitive film (Hyperfilm Amersham) in a light-proof X-ray cassette at 4° C. for two weeks.\nThe optical densities from different brain regions were converted first to radioactive units and then to fmol/mm^2 using the [^3 H] standards on the film with the aid of a computerized image densitometric analysis system (MCID 4.02). The values were normalized and the Ki values were determined using a computerized program (Graph-Pad Prism) Bernabeu et al., 1995; Cammarota et al., 1995)."}, "Holeboard test in mice": {"test": "Holeboard test in mice", "format": "in vivo, male Swiss mice", "conditions": "mouse, in vivo, ip; 10 mg/kg vs anxiolytic dose; read-out: dose decreasing holeboard parameters relative to anxiolytic dose", "protocol": "(§1) Adult male Wistar rats weighing 250 g were used for biochemical experiments. Adult male Swiss male weighing 25-30 g were used for pharmacological assays except for inhibitory avoidance and tail flick tests were done in rats. Animals were housed in a controlled environment, with free access to food and water and maintained on a 12 h/12 h day/night cycle.\n(§2) The test was performed according to Viola et al. (1994) and Wolfman et al. (1994). The number of head dips and the time spent head dipping were counted during 5 min."}, "mice [3]": {"tested_on": "mice", "test": "Holeboard test in mice", "format": "in vivo, male Swiss mice", "conditions": "for number of head dips and time spent head-dipping: mice, i.p.", "protocol": "as §1, §2"}, "[4]": {"test": "Sodium thiopental-induced sleeping time", "format": "in vivo, mice", "conditions": "mouse, in vivo; thiopental sleep, locomotor activity and holeboard together; read-out: doses with slight depressant action relative to anxiolytic doses", "protocol": "(§3) Sodium thiopental (Abbott) (22 mg/kg) was i.p. injected 15 min after vehicle or DNF. The disappearance and reappearance of the righting reflex were considered indications of latency and duration of sleep, respectively (Anca et al., 1993).\n(§4) Mice were injected with sodium thiopental (TP, 22 mg/kg i.p.) 15 min after vehicle (VEH) or 6,3'-dinitroflavone (DNF). The ceiling of sleeping time was 1800 s. Data are expressed in medians (interquartile range). ^3 number of animals per group."}, "mice [5]": {"tested_on": "mice", "test": "Sodium thiopental-induced sleeping time", "format": "in vivo", "conditions": "for Sleeping Time / Latency: median (interquartile range); for Sleeping Time: VEH 190; for Latency: VEH 233", "protocol": "as §3, §4"}}, "note": "Read-outs that look alike come from different tables or passages of the source."}
{"compound": "O=c1cc(-c2cccc([N+](=O)[O-])c2)oc2ccc([N+](=O)[O-])cc12", "note": "[Compound (II), 6,3'-dinitroflavone]", "values": [{"measurement": "Scatchard analysis of saturation curves (type of interaction)", "setting": "[1]; bovine membranes, compound (II) 20 nM (FIG. 1)", "result": "competitive interaction showing a decline in the apparent affinity without changes in the maximal number of sites (Bmax)"}, {"measurement": "Ki", "setting": "[1]; read-out: Ki, inhibition of 3H-FNZ binding, bovine cerebral cortical membranes, 0.6 nM 3H-FNZ, 4° C., 60 min, n=7", "result": "0.012 ± 0.0017", "unit": "µM"}, {"measurement": "displacement of [3H]-dihidroalprenolol binding", "setting": "β adrenergic receptors", "result": "did not displace"}, {"measurement": "Ki", "setting": "[2]; dentate gyrus", "result": "0.0822 ± 0.0076", "unit": "µM"}, {"measurement": "Ki", "setting": "[2]; parietal cortex", "result": "0.0301 ± 0.0026", "unit": "µM"}, {"measurement": "potency to displace [3H]-FNZ, cerebellum vs dentate gyrus", "setting": "[2]; ratio", "result": 5, "unit": "times"}, {"measurement": "Ki", "setting": "[2]; striatum", "result": "0.0537 ± 0.0073", "unit": "µM"}, {"measurement": "selectivity ratio", "setting": "Holeboard test in mice", "result": 300}, {"measurement": "number of head dips and time spent head-dipping", "setting": "mice [3]; 10 mg/kg, p<0.01", "result": "decreased both parameters"}, {"measurement": "number of head dips and time spent head-dipping", "setting": "mice [3]; up to 3 mg/kg", "result": "did not change the number of head dips and the time spent head-dipping"}, {"measurement": "dose to produce similar sedative effects in comparison to DZ", "setting": "mice [3]; ratio to diazepam, higher dose", "result": 10, "unit": "fold"}, {"measurement": "selectivity ratio", "setting": "[4]", "result": "100 to 300"}, {"measurement": "latency or sleeping time (in words)", "setting": "mice [5]; 1 mg/kg", "result": "did not change the latency or the sleeping time"}, {"measurement": "Sleeping Time", "setting": "mice [5]; DNF 1 mg/kg + TP 22 mg/kg, n=7", "result": "207 (20/600) s"}, {"measurement": "Latency", "setting": "mice [5]; DNF 1 mg/kg + TP 22 mg/kg, n=7", "result": "230 (164/300) s"}, {"measurement": "Latency", "setting": "mice [5]; DNF 3 mg/kg + TP 22 mg/kg, n=12", "result": "237 (202/293) s"}, {"measurement": "Sleeping Time", "setting": "mice [5]; DNF 3 mg/kg + TP 22 mg/kg, n=12, p<0.05", "result": "1277 (248/1800) s"}, {"measurement": "latency to sleep (in words)", "setting": "mice [5]; i.p., 3 mg/kg", "result": "No changes were observed in latency to sleep"}, {"measurement": "sleeping time (in words)", "setting": "mice [5]; i.p., 3 mg/kg, p<0.05", "result": "augmented the sleeping time"}]}
